Laboratory results as given in patent US20170368082A1, “FORMULATIONS OF BRINCIDOFOVIR” (priority 2016, published 2017).
Several values for one entry are separate records, joined by “and”; a condition that tells them apart may be missing. Equal values may be shown once.

Experiment: Phase 2 toxicokinetics of brincidofovir and cidofovir in plasma
Format: in vivo, Sprague-Dawley CD rats
Parameters: Imputed Concentration, Mean: unit: ng/mL
Conditions: plasma; for C (Concentration), individual animals: 15 mg/kg; for Imputed Concentration, individual animals / Imputed Concentration, Mean: BLQ imputed as zero
Protocol: Plasma samples (108) were collected 2 hours following the initiation of dosing on Day 1 and Day 7 (Group 1), or at 1, 2, 8, and 24 hours following the initiation of dosing on Day 1, and prior to administration and at 2, 8, and 24 hours following the initiation of dosing on Day 7 (Groups 2 and 3), and analyzed to determine the concentrations of brincidofovir and the metabolite, cidofovir), by LC/MS/MS.
Approximately 0.4 mL of whole blood was obtained via the tail vein from each animal at each time point. Animals were not fasted prior to blood collection. Blood was collected into tubes containing K2EDTA anticoagulant and placed on wet ice in an upright position, per facility SOP prior to processing. Plasma was separated by centrifugation (10 minutes at approximately 2000 g, at approximately 2-8° C.). Approximately 0.10 mL of plasma was transferred into a single cryotube appropriately labeled with study number, animal number, time point, date of sampling and sample type. Remaining plasma was transferred into a second cryotube and retained as a backup sample. Plasma frozen at approximately −80±10° C. within approximately 2 hours after collection of each blood sample until analysis. Animals were euthanized (CO2 inhalation) after the final blood collection.
In general, TK parameters were estimated using mean plasma concentrations of brincidofovir and cidofovir derived from the composite blood sampling design using Phoenix WinNonLin (V 6.3).
A composite blood sampling design was used such that each rat was sampled twice per sampling day. Blood was collected via tail vein from unanesthetized animals into tubes containing anticoagulant and placed on wet ice in an upright position. Animals were not fasted prior to blood collection. Plasma was separated by centrifugation (for 10 minutes at approximately 2000 g, at approximately 2-8° C.), and transferred into individually labeled cryotubes. All cryotubes containing the collected plasma samples were appropriately labeled as to study number, animal number, time point, date of sampling and sample type. All plasma samples were obtained and frozen at approximately −80° C. (±10° C.) within approximately 2 hours after collection of each blood sample until analysis.
Rat plasma bioanalysis was conducted by Pyxant Laboratories. Plasma samples were analyzed for concentrations of brincidofovir and cidofovir using a method based upon protein precipitation extraction followed by LC-MS/MS analysis; calibration ranges for brincidofovir and cidofovir were 1.00-1500 ng/mL and 5.00-750 ng/mL, respectively, (Pyxant study number 3025) for a 50 μL aliquot of rat plasma. Sample analysis for ISR was not performed as part of this non-GLP study.
For the generation of Mean Profiles, all sample concentrations that were below the limit of quantitation (BLQ) were set to 0.
All pharmacokinetic parameter estimates were completed using a Non-Compartmental Model (Model 200-202 for IV infusion administration). The AUClast and AUCinf were calculated using the linear up log down trapezoidal rule.

[1] = brincidofovir 1 mg/kg 2-h IV infusion, female rats, Day 7, 0 h
[2] = brincidofovir 1 mg/kg 2-h IV infusion, female rats, Day 7, 24 h
[3] = brincidofovir 1 mg/kg 2-h IV infusion, male rats, Day 7, 8 h
[4] = brincidofovir 1 mg/kg 2-h IV infusion, male rats, Day 7, 24 h
[5] = brincidofovir 15 mg/kg 2-h IV infusion, female rats, Day 7, 0 h
[6] = brincidofovir 15 mg/kg 2-h IV infusion, male rats, Day 7, 0 h

CCCCCCCCCCCCCCCCOCCCOP(=O)(O)CO[C@H](CO)Cn1ccc(N)nc1=O [Brincidofovir]
C (Concentration), individual animals (female rats, Day 7, 24 h, listed as BCV): BLQ
C (Concentration), individual animals (male rats, Day 7, 0 h): BLQ
Imputed Concentration, individual animals (brincidofovir 1 mg/kg 2-h IV infusion, female rats, Day 1, 1 h, listed as BCV): 126 ng/mL and 177 ng/mL
Imputed Concentration, individual animals (brincidofovir 1 mg/kg 2-h IV infusion, female rats, Day 1, 2 h, listed as BCV): 164 ng/mL and 155 ng/mL
Imputed Concentration, individual animals (brincidofovir 1 mg/kg 2-h IV infusion, female rats, Day 1, 8 h, listed as BCV): 2.30 ng/mL and 1.45 ng/mL and 0.00 ng/mL
Imputed Concentration, individual animals (brincidofovir 1 mg/kg 2-h IV infusion, female rats, Day 1, 24 h): 0.00 ng/mL
Imputed Concentration, Mean [1]: 0.00 ng/mL
Imputed Concentration, individual animals [1]: 0.00 ng/mL
Imputed Concentration, Mean (brincidofovir 1 mg/kg 2-h IV infusion, female rats, Day 7, 2 h): 95.4 ng/mL
Imputed Concentration, individual animals (brincidofovir 1 mg/kg 2-h IV infusion, female rats, Day 7, 2 h, listed as BCV): 115 ng/mL and 82.1 ng/mL and 89.2 ng/mL
Imputed Concentration, Mean (brincidofovir 1 mg/kg 2-h IV infusion, female rats, Day 7, 8 h): 2.19 ng/mL
Imputed Concentration, individual animals (brincidofovir 1 mg/kg 2-h IV infusion, female rats, Day 7, 8 h, listed as BCV): 6.58 ng/mL and 0.00 ng/mL (2×)
Imputed Concentration, Mean [2]: 0.00 ng/mL
Imputed Concentration, individual animals [2]: 0.00 ng/mL
Imputed Concentration, individual animals (brincidofovir 1 mg/kg 2-h IV infusion, male rats, Day 1, 1 h, listed as BCV): 244 ng/mL and 280 ng/mL
Imputed Concentration, individual animals (brincidofovir 1 mg/kg 2-h IV infusion, male rats, Day 1, 2 h, listed as BCV): 283 ng/mL and 203 ng/mL
Imputed Concentration, individual animals (brincidofovir 1 mg/kg 2-h IV infusion, male rats, Day 1, 8 h): 0.00 ng/mL
Imputed Concentration, individual animals (brincidofovir 1 mg/kg 2-h IV infusion, male rats, Day 1, 24 h): 0.00 ng/mL
Imputed Concentration, individual animals (brincidofovir 1 mg/kg 2-h IV infusion, male rats, Day 7, 0 h): 0.00 ng/mL
Imputed Concentration, Mean (brincidofovir 1 mg/kg 2-h IV infusion, male rats, Day 7, 2 h): 208 ng/mL
Imputed Concentration, individual animals (brincidofovir 1 mg/kg 2-h IV infusion, male rats, Day 7, 2 h, listed as BCV): 255 ng/mL and 189 ng/mL and 179 ng/mL
Imputed Concentration, Mean [3]: 0.00 ng/mL
Imputed Concentration, individual animals [3]: 0.00 ng/mL
Imputed Concentration, Mean [4]: 0.00 ng/mL
Imputed Concentration, individual animals [4]: 0.00 ng/mL
Imputed Concentration, Mean (brincidofovir 15 mg/kg 2-h IV infusion, female rats, Day 1, 1 h): 3470
Imputed Concentration, individual animals (brincidofovir 15 mg/kg 2-h IV infusion, female rats, Day 1, 1 h, listed as BCV): 3030 and 3930 and 3450
Imputed Concentration, Mean (brincidofovir 15 mg/kg 2-h IV infusion, female rats, Day 1, 2 h): 2570
Imputed Concentration, individual animals (brincidofovir 15 mg/kg 2-h IV infusion, female rats, Day 1, 2 h, listed as BCV): 2460 and 1860 and 3380
Imputed Concentration, Mean (brincidofovir 15 mg/kg 2-h IV infusion, female rats, Day 1, 8 h): 6.53
Imputed Concentration, individual animals (brincidofovir 15 mg/kg 2-h IV infusion, female rats, Day 1, 8 h, listed as BCV): 5.05 and 7.97 and 6.57
Imputed Concentration, Mean (brincidofovir 15 mg/kg 2-h IV infusion, female rats, Day 1, 24 h): 2.02
Imputed Concentration, individual animals (brincidofovir 15 mg/kg 2-h IV infusion, female rats, Day 1, 24 h, listed as BCV): 2.32 and 1.25 and 2.48
Imputed Concentration, Mean [5]: 0.00
Imputed Concentration, individual animals [5]: 0.00
Imputed Concentration, Mean (brincidofovir 15 mg/kg 2-h IV infusion, female rats, Day 7, 2 h): 1660
Imputed Concentration, individual animals (brincidofovir 15 mg/kg 2-h IV infusion, female rats, Day 7, 2 h, listed as BCV): 2220 and 995 and 1750
Imputed Concentration, individual animals (brincidofovir 15 mg/kg 2-h IV infusion, female rats, Day 7, 8 h, listed as BCV): 5.32 and 6.27 and 4.75
Imputed Concentration, Mean (brincidofovir 15 mg/kg 2-h IV infusion, male rats, Day 1, 1 h): 4370
Imputed Concentration, individual animals (brincidofovir 15 mg/kg 2-h IV infusion, male rats, Day 1, 1 h, listed as BCV): 4020 and 4030 and 5060
Imputed Concentration, Mean (brincidofovir 15 mg/kg 2-h IV infusion, male rats, Day 1, 2 h): 2840
Imputed Concentration, individual animals (brincidofovir 15 mg/kg 2-h IV infusion, male rats, Day 1, 2 h, listed as BCV): 2510 and 2990 and 3010
Imputed Concentration, Mean (brincidofovir 15 mg/kg 2-h IV infusion, male rats, Day 1, 8 h): 9.59
Imputed Concentration, individual animals (brincidofovir 15 mg/kg 2-h IV infusion, male rats, Day 1, 8 h, listed as BCV): 10.7 and 8.23 and 9.85
Imputed Concentration, Mean (brincidofovir 15 mg/kg 2-h IV infusion, male rats, Day 1, 24 h): 1.22
Imputed Concentration, individual animals (brincidofovir 15 mg/kg 2-h IV infusion, male rats, Day 1, 24 h, listed as BCV): 1.20 and 1.10 and 1.36
Imputed Concentration, Mean [6]: 0.00
Imputed Concentration, individual animals [6]: 0.00
Imputed Concentration, Mean (brincidofovir 15 mg/kg 2-h IV infusion, male rats, Day 7, 2 h): 1910
Imputed Concentration, individual animals (brincidofovir 15 mg/kg 2-h IV infusion, male rats, Day 7, 2 h, listed as BCV): 1640 and 1940 and 2150
Imputed Concentration, individual animals (brincidofovir 15 mg/kg 2-h IV infusion, male rats, Day 7, 8 h, listed as BCV): 9.82 and 7.60 and 8.73
